We go through 33 compounds from patent US12503436B2, “Compounds and compositions for treating conditions associated with STING activity” (NOVARTIS PHARMA AG, priority 2021, dated 2025).

This experiment has as its target STING (Homo sapiens, UniProt Q86WV6, G230A/H232R/R293Q/R71H). In words: STING reporter assay in THP1-Dual KO-IFNAR2 cells (2′3′cGAMP stimulation, luciferase reporter). The format is cell-based. The note with it: 15 μM 2′3′cGAMP stimulation, 24 h, read-out: Pharmaron, THP1_IFNAR2 STING 24 h Luci Normalized: GeoMean EC50. Put shortly:
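THP1-Dual KO-IFNAR2 cells (2×10E6 cells/mL) with compounds at 0.0017-100 μM final, stimulated with 15 μM final 2′3′cGAMP delivered by Lipofectamine 2000; 24 h at 37 °C. Luciferase in supernatant read with QUANTI-Luc Plus; EC50 derived from luminescence.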
Background: Reporter assays use an easily measured gene product as a stand-in for the process of interest.

Chain of STING (Q86WV6 whole entry R71H/G230A/H232R/R293Q): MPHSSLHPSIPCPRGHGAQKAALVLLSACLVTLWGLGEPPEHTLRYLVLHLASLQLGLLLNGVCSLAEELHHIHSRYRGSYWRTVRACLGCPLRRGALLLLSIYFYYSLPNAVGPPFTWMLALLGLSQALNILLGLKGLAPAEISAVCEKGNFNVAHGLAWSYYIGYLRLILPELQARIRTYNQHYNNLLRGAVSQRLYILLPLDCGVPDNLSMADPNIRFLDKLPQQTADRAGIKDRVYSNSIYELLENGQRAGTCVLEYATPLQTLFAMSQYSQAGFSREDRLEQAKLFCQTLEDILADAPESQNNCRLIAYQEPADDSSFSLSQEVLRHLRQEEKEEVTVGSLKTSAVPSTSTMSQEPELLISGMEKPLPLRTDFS

For `CO[C@H]1C[C@H](C(=O)Nc2c[nH]c3ccc(OCCc4ccc(C(F)(F)F)nc4)cc23)C1` [Compound 194, trans-3-methoxy-N-(5-(2-(6-(trifluoromethyl)pyridin-3-yl)ethoxy)-1H-indol-3-yl)cyclobutane-1-carboxamide], the half-maximal effective concentration (EC50) fell in the range of 200 to 1000 nM.

As to `COCCN1CC(C(=O)Nc2c[nH]c3ccc(OCCc4ccc(C(F)(F)F)cc4)cc23)C1` [Compound 298, 1-(2-methoxyethyl)-N-(5-(4-(trifluoromethyl)phenethoxy)-1H-indol-3-yl)azetidine-3-carboxamide], the concentration giving a half-maximal response (EC50) was in the range of 200 to 1000 nM.

With `CC(=O)Nc1c[nH]c2ccc(CCCc3ccc(C(F)(F)F)cc3)cc12` [Compound 132, N-(5-(3-(4-(trifluoromethyl)phenyl)propyl)-1H-indol-3-yl)acetamide], the concentration giving a half-maximal response (EC50) lay in the range of 40 to 200 nM.

Regarding `CC(=O)Nc1c[nH]c2ccc(OCCC3CC4(C3)CN(CC(F)(F)F)C4)cc12` [Compound 171, N-(5-(2-(2-(2,2,2-trifluoroethyl)-2-azaspiro[3.3]heptan-6-yl)ethoxy)-1H-indol-3-yl)acetamide], the EC50 lay within 1000 to 5000 nM.

For the compound `O=C(Nc1c[nH]c2ccc(OCCC3CCCN(CC(F)(F)F)C3)cc12)C1CC1` (stereo not drawn) [Compound 498, N-(5-(2-(1-(2,2,2-trifluoroethyl)piperidin-3-yl)ethoxy)-1H-indol-3-yl)cyclopropanecarboxamide], the EC50 lay in the range of 200 to 1000 nM.

As for `CC(=O)Nc1c[nH]c2ccc(CCOc3ccc(C#N)cc3)cc12` [Compound 462, N-{5-[2-(4-cyanophenoxy)ethyl]-1H-indol-3-yl}acetamide], the half-maximal effective concentration (EC50) fell in the range of 1000 to 5000 nM.

For the compound `N#CC1(C(=O)Nc2c[nH]c3ccc(O[C@H]4C[C@H](c5ccc(C(F)(F)F)cc5)C4)cc23)CC1` [Compound 565, 1-cyano-N-(5-(trans-3-(4-(trifluoromethyl)phenyl)cyclobutoxy)-1H-indol-3-yl)cyclopropane-1-carboxamide], the 50% effective concentration (EC50) lay within 200 to 1000 nM.

Take `O=C(Nc1c[nH]c2ccc(OCc3ccc(C(F)(F)F)cc3)cc12)[C@H]1C[C@@H](O)C1` [Compound 324, cis-3-hydroxy-N-(5-((4-(trifluoromethyl)benzyl)oxy)-1H-indol-3-yl)cyclobutane-1-carboxamide]: the concentration giving a half-maximal response (EC50) was 200 to 1000 nM.

Turning to `O=C(Nc1c[nH]c2ccc(CC(O)Cc3ccc(C(F)(F)F)cc3)cc12)C1CC1` (stereo not drawn) [Compound 240, N-(5-(2-hydroxy-3-(4-(trifluoromethyl)phenyl)propyl)-1H-indol-3-yl)cyclopropanecarboxamide], the EC50 was 200 to 1000 nM.

Regarding `CC(=O)Nc1c[nH]c2ccc(OCCc3cnn(C(F)F)c3)cc12` [Compound 385, N-(5-(2-(1-(difluoromethyl)-1H-pyrazol-4-yl)ethoxy)-1H-indol-3-yl)acetamide], the EC50 is 5000 to 100000 nM.

Take `CC1(C(=O)Nc2c[nH]c3ccc(OCc4ccc(C(F)(F)F)cc4)cc23)CCNCC1` [Compound 528, 4-methyl-N-(5-((4-(trifluoromethyl)benzyl)oxy)-1H-indol-3-yl)piperidine-4-carboxamide]: the EC50 was 5000 to 100000 nM.

On to `O=C(Nc1c[nH]c2ccc(OCCc3ccc(C(F)(F)F)cc3)cc12)C1CN(CC(F)(F)F)C1` [Compound 210, 1-(2,2,2-trifluoroethyl)-N-(5-(4-(trifluoromethyl)phenethoxy)-1H-indol-3-yl)azetidine-3-carboxamide], for which the concentration giving a half-maximal response (EC50) is 40 to 200 nM.

Take `N#C[C@@H]1C[C@@H]1C(=O)Nc1c[nH]c2ccc(CCOc3ccc(C(F)(F)F)cc3)cc12` [Compound 582, (1S,2R)-2-cyano-N-(5-(2-(4-(trifluoromethyl)phenoxy)ethyl)-1H-indol-3-yl)cyclopropane-1-carboxamide]: the EC50 was 40 to 200 nM.

Turning to `O=C(Nc1c[nH]c2ccc(OCC[C@@H]3C[C@@H]4CN(CC(F)(F)F)C[C@@H]4C3)cc12)C1CC1` [Compound 182, N-(5-(2-((3aR,5r,6aS)-2-(2,2,2-trifluoroethyl)octahydrocyclopenta[c]pyrrol-5-yl)ethoxy)-1H-indol-3-yl)cyclopropanecarboxamide], the EC50 lay within 200 to 1000 nM.

In the case of `CC1(C)CC(C(=O)Nc2c[nH]c3ccc(OCCc4ccc(C(F)(F)F)cc4)cc23)C1` [Compound 236, 3,3-dimethyl-N-(5-(4-(trifluoromethyl)phenethoxy)-1H-indol-3-yl)cyclobutane-1-carboxamide], the 50% effective concentration (EC50) lay in the range of 40 to 200 nM.

On to `COCCOCC(=O)Nc1c[nH]c2ccc(OCCc3ccc(C(F)(F)F)cc3)cc12` [Compound 407, 2-(2-methoxyethoxy)-N-(5-(4-(trifluoromethyl)phenethoxy)-1H-indol-3-yl)acetamide], for which the 50% effective concentration (EC50) fell in the range of 200 to 1000 nM.

As to `COC1CC(C(=O)Nc2c[nH]c3ccc(CCOc4ccc(C(F)(F)F)cc4)cc23)C1` (stereo not drawn) [Compound 297, 3-methoxy-N-(5-(2-(4-(trifluoromethyl)phenoxy)ethyl)-1H-indol-3-yl)cyclobutane-1-carboxamide], the EC50 was 200 to 1000 nM.

Turning to `CC1(C(=O)Nc2c[nH]c3ccc(CCOc4ccc(C(F)(F)F)cc4)cc23)COC1` [Compound 165, 3-methyl-N-(5-(2-(4-(trifluoromethyl)phenoxy)ethyl)-1H-indol-3-yl)oxetane-3-carboxamide], the EC50 lay in the range of 40 to 200 nM.

On to `O=C(Nc1c[nH]c2ccc(O[C@H]3C[C@@H](c4ccc(C(F)(F)F)cc4)C3)cc12)C1CNC1` [Compound 537, N-(5-(cis-3-(4-(trifluoromethyl)phenyl)cyclobutoxy)-1H-indol-3-yl)azetidine-3-carboxamide], for which the EC50 is 5000 to 100000 nM.

Turning to `O=C(Nc1c[nH]c2ccc(OCc3ccc(C(F)(F)F)cc3)cc12)C1CC(F)C1` (stereo not drawn) [Compound 326, 3-fluoro-N-(5-((4-(trifluoromethyl)benzyl)oxy)-1H-indol-3-yl)cyclobutane-1-carboxamide], the EC50 was 200 to 1000 nM.

Take `N#CC1CCC1C(=O)Nc1c[nH]c2ccc(CCOc3ccc(C(F)(F)F)cc3)cc12` (stereo not drawn) [Compound 390, 2-cyano-N-(5-(2-(4-(trifluoromethyl)phenoxy)ethyl)-1H-indol-3-yl)cyclobutane-1-carboxamide]: the 50% effective concentration (EC50) lay within 200 to 1000 nM.

As to `CC(=O)Nc1c[nH]c2ccc(CO[C@H]3C[C@@H](c4ccc(C(F)(F)F)cc4)C3)cc12` [Compound 500, N-(5-((cis-3-(4-(trifluoromethyl)phenyl)cyclobutoxy)methyl)-1H-indol-3-yl)acetamide], the EC50 lay within 40 to 200 nM.

As for `CC1(C(=O)Nc2c[nH]c3ccc(O[C@H]4C[C@H](c5ccc(C(F)(F)F)cc5)C4)cc23)CCNCC1` [Compound 460, 4-methyl-N-{5-[(1R,3R)-3-[4-(trifluoromethyl)phenyl]cyclobutoxy]-1H-indol-3-yl}piperidine-4-carboxamide], the EC50 lay within 1000 to 5000 nM.

For `CC(=O)Nc1c[nH]c2ccc(CCC[C@@H]3C[C@@H]4CN(CC(F)(F)F)C[C@@H]4C3)cc12` [Compound 539, N-(5-(3-((3aR,5r,6aS)-2-(2,2,2-trifluoroethyl)octahydrocyclopenta[c]pyrrol-5-yl)propyl)-1H-indol-3-yl)acetamide], the EC50 is 1000 to 5000 nM.

In the case of `CC(=O)Nc1c[nH]c2c(C)cc(COCc3ccc(C(F)(F)F)cc3)cc12` [Compound 272, N-(7-methyl-5-(((4-(trifluoromethyl)benzyl)oxy)methyl)-1H-indol-3-yl)acetamide], the EC50 lay in the range of 1000 to 5000 nM.

As for `CC(=O)Nc1c[nH]c2ccc(OCCn3cc(C(F)(F)F)cn3)cc12` [Compound 197, N-(5-(2-(4-(trifluoromethyl)-1H-pyrazol-1-yl)ethoxy)-1H-indol-3-yl)acetamide], the concentration giving a half-maximal response (EC50) lay in the range of 5000 to 100000 nM.

Regarding `N#CC1CCC1C(=O)Nc1c[nH]c2ccc(OCC[C@@H]3C[C@@H]4CN(CC(F)(F)F)C[C@@H]4C3)cc12` (stereo partly drawn) [Compound 304, 2-cyano-N-(5-(2-((3aR,5r,6aS)-2-(2,2,2-trifluoroethyl)octahydrocyclopenta[c]pyrrol-5-yl)ethoxy)-1H-indol-3-yl)cyclobutane-1-carboxamide], the EC50 lay in the range of 200 to 1000 nM.

As for `CO[C@H]1C[C@@H](C(=O)Nc2c[nH]c3ccc(O[C@H]4C[C@@H](c5ccc(C(F)(F)F)cc5)C4)cc23)C1` [Compound 245, cis-3-methoxy-N-(5-(cis-3-(4-(trifluoromethyl)phenyl)cyclobutoxy)-1H-indol-3-yl)cyclobutane-1-carboxamide], the half-maximal effective concentration (EC50) was 40 to 200 nM.

Consider `O=C(Nc1c[nH]c2ccc(OCCc3ccc(C(F)(F)F)cc3)cc12)C1CC(O)C1` (stereo not drawn) [Compound 180, 3-hydroxy-N-(5-(4-(trifluoromethyl)phenethoxy)-1H-indol-3-yl)cyclobutane-1-carboxamide], for which the concentration giving a half-maximal response (EC50) was in the range of 200 to 1000 nM.

In the case of `O=C(Nc1c[nH]c2ccc(O[C@H]3C[C@@H](c4ccc(C(F)(F)F)cc4)C3)cc12)C1(CO)CCC1` [Compound 420, 1-(hydroxymethyl)-N-(5-(cis-3-(4-(trifluoromethyl)phenyl)cyclobutoxy)-1H-indol-3-yl)cyclobutane-1-carboxamide], the EC50 was in the range of 200 to 1000 nM.

With `N#C[C@H]1C[C@@H]1C(=O)Nc1c[nH]c2ccc(OCc3ccc(C(F)(F)F)cc3)cc12` [Compound 585, (1S,2S)-2-cyano-N-(5-((4-(trifluoromethyl)benzyl)oxy)-1H-indol-3-yl)cyclopropane-1-carboxamide], the EC50 lay in the range of 200 to 1000 nM.

Turning to `C[C@H]1C[C@@H](C(=O)Nc2c[nH]c3ccc(O[C@H]4C[C@@H](c5ccc(C(F)(F)F)cc5)C4)cc23)C1` [Compound 335, cis-3-methyl-N-(5-(cis-3-(4-(trifluoromethyl)phenyl)cyclobutoxy)-1H-indol-3-yl)cyclobutane-1-carboxamide], the EC50 fell in the range of 200 to 1000 nM.

Turning to `C[C@]1(C(=O)Nc2c[nH]c3ccc(OCC[C@@H]4C[C@@H]5CN(CC(F)(F)F)C[C@@H]5C4)cc23)C[C@@H](O)C1` [Compound 513, (1s,3S)-3-hydroxy-1-methyl-N-(5-(2-((3aR,5r,6aS)-2-(2,2,2-trifluoroethyl)octahydrocyclopenta[c]pyrrol-5-yl)ethoxy)-1H-indol-3-yl)cyclobutane-1-carboxamide], the 50% effective concentration (EC50) was 200 to 1000 nM.

Usually EC50 stands for the concentration needed to bring the measured effect to its halfway point.
